Assay results reported in US20080200564A1, “Copolymers Based on N-Vinylpyrrolidone and Branched Aliphatic Carbonxylic Acids, and Their Use as Solubilizers” (BASF Aktiengesellschaft, priority 2005, published 2008).

Test: Preparation of solubilizates: content of solubilized active ingredient, measured photometrically
Type: physicochemical
Details: pH 7
Experimental: 2 g of the copolymer were weighed into a beaker. Then, one medicament in each case was weighed into the mixture as follows in order to obtain a supersaturated solution. (If the weighed-in mass dissolved in the medium, the initial weight was increased until a sediment formed). […] Phosphate buffer pH 7.0 was then added until solubilizer and phosphate buffer were present in the weight ratio 1:9. […] There then followed a resting time of at least one hour. Following filtration of the mixture, it was measured photometrically and the content of active ingredient was determined.

Row | content of solubilized active ingredient, Carbamazepine [g/100 ml] | content of solubilized active ingredient, Piroxicam [g/100 ml] | Substance
1 | 0.21 | 0.50 | copolymers of N-vinylpyrrolidone/N-vinylcaprolactam/VEOVA 10 (weight ratio 70/20/10) [Example 4]
2 | 0.17 | 0.54 | copolymers of N-vinylpyrrolidone/VEOVA 9 (weight ratio 80/20) [Example 2]
3 | 0.19 | 0.48 | copolymers of N-vinylpyrrolidone/VEOVA 9 (weight ratio 90/10) [Example 3]
